US5032597A, “Method of using phenylquinolinecarboxylic acids and derivatives for lymthoid leukemia treatment in a mammal” (priority 1987, dated 1991)
Converted amounts (≈) assume the structure as drawn. “And” between values parts separate entries of the source, which are not always exact repeats. Equal entries are not always repeated. Where two headings read alike, the source gives them in different places.

Assays:
L1210 leukemia = test: Lymphoid Leukemia L1210, survival of tumored mice; format: in vivo, CD2F1 mice; settings: for response vs control in vivo at 200 mg/kg: 200 mg/kg i.p.; for response vs control in vivo at 300 mg/kg: 300 mg/kg i.p.; for response vs control in vivo at 25 mg/kg: 25 mg/kg i.p.
Procedure, shortened: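 Male CD2 F1 mice, six per group, received 10^5 L1210 cells i.p. on day 0. Compounds in hydroxypropylcellulose, saline/Tween 80 or saline were given i.p. at various doses once daily on days 1-9, with vehicle controls.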

[1] = tested on: human colon carcinoma cells HCT-15; test: Human colon tumor test in vitro, HCT-15 cell growth inhibition; format: cell-based; settings: for IC50: Homo sapiens, HCT-15, 72 h, read-out: in vitro HCT-15 ID50 (50 percent inhibition of number of doublings); for in vitro HCT-15 ID50 (50 percent inhibition of number of doublings): 4320 min
Procedure, shortened: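 HCT-15 human colon adenocarcinoma cells in RPMI 1640 with 10% heat-inactivated FCS, compound added on day 1 and cells counted by hemocytometer on day 4. ID50 is the concentration (μg/ml) halving the number of doublings, from log-log dose-response plots.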

human colon tumor HCT-15 = test: Human colon tumor HCT-15 in athymic mice; format: in vivo, Swiss NU/NU athymic mice; settings: for Average Tumor Weight, Day 7 (day treatment was started) / Average Tumor Weight, Day 21 / Net Tumor Weight gain, Day 21 / Tumor Growth Inhibition, Day 21: 5 days from day 7; for toxicity: 40 mg/kg i.p., athymic mice
Method: The compounds of Example 1 and 91 were also tested for effectiveness against a human colon tumor implanted in athymic mice.
The animals used were Swiss NU/NU athymic mice, weighing 20-22 g each at the start of the test. The test group consisted of twelve mice, seven males and five females. The HCT-15 tumor cell line, derived from a patient with adenocarcinoma of the colon, was maintained in culture. The tumor was implanted in each of the test mice by the subcutaneous injection in the flank region of 0.2 ml of physiological saline containing 10^7 HCT-15 cultured cells. Tumors appeared within 72 hours and treatment started one week after tumor inoculation.
Test compounds, suspended in methocel (0.5% in water) or dissolved in water, were injected intraperitoneally once daily for five consecutive days starting on day seven relative to the day of tumor inoculation (day 0). The body weight and the size of the tumor were determined daily. Tumor size was determined by two-dimensional caliper measurements. Tumor weight was estimated from the formula: [formula] tumor weight in which 1=length and w=width of the tumor in mm. The net tumor weight was determined by subtracting from the actual tumor weight at the time of evaluation the initial estimated tumor weight at the time treatment was started (day 7). Drug effectiveness was assessed on the basis of inhibition of the gain in net tumor weight in the treated (T) compared to that of the control (C) mice. Percent tumor growth inhibition was calculated by the formula: [formula]

colon tumors = settings: in vivo; cited from earlier work
melanotic melanoma B16 = test: Melanotic Melanoma B16 test, survival of tumored mice; format: in vivo, B6C3F1 mice; settings: for T/C × 100 (median survival time): 9 days, 2 tests
Method: The efficacy of the compounds of this invention against the transplanted mouse tumors was evaluated in test systems currently in use at the National Cancer Institute for the detection and assessment of anticancer activity. […] J. Cancer, 17, 129-142, (1981); Venditti, J. M., Seminars in Oncology, 8 (4) (1981); Goldin, A. and J. M. Venditti, in Recent Results in Cancer Research, 70, S. K. Carter and Y. Sakurai, Eds., Springer-Verlag, Berlin/Heidelberg, 1980].
The animals used were B6 C3 F1 mice, all of one sex, weighing a minimum of 18 g for males and 17 g for females and all within a 4 g weight range at the start of the test. The test group comprised 9 or 10 mice. The tumor was implanted in each of the test mice by the subcutaneous injection of 0.5 ml of a tumor homogenate prepared by homogenizing a 1 g portion of melanotic melanoma in 10 ml of cold physiological saline. The test compounds suspended in hydroxypropylcellulose were administered intraperitoneally at various doses once daily for nine consecutive days starting on day one relative to the day of tumor inoculation (day 0). The control mice received injections of hydroxypropylcellulose vehicle only. The mice were weighted and survivors were recorded on a regular basis for 60 days. The median survival times and the ratio of the median survival times for treated (T) to control (C) mice were calculated. The median survival time of the nontreated tumored mice ranged from 15 to 17 days. Drug effectiveness was assessed on the basis of the survival time. Results were expressed as a percentage of the control survival time (Survival Time T/C ×100%). The criterion for effectiveness was determined by: T/C ×100 ≥125 percent.

[2] = Mus musculus, L1210, ip, 720 h, read-out: L1210 Leukemia % T/C (median survival time)
[3] = HCT-15 cells, compound day 1 to day 4

## O=c1[nH]cc(F)c(=O)[nH]1 [5-Fluorouracil, reference compound]
L1210 leukemia; [2]
  response vs control in vivo at 16 mg/kg: 228%
[1]
  IC50: 0.27 mg/L (≈ 2.08 µM)
Human colon tumor HCT-15; 20 mg/kg i.p.
  effectiveness: ineffective
Human colon tumor HCT-15; 20 mg/kg i.p. once daily
  Average Tumor Weight, Day 7 (day treatment was started): 56.7 mg
  Average Tumor Weight, Day 21: 421.7 mg
  Net Tumor Weight gain, Day 21: 365 mg
  Tumor Growth Inhibition, Day 21: 0%
Human colon tumor HCT-15
  toxicity: Toxic
Human colon tumor HCT-15; listed as 5-Fluorouacil
  toxicity: toxic
Colon tumors
  effectiveness in treatment of colon tumors in man: not consistently effective

## N.N.[Cl][Pt][Cl] [Cisplatin, reference compound]
Melanotic melanoma B16; 1 mg/kg i.p. once daily
  T/C × 100 (median survival time): 175%
Melanotic melanoma B16; 2 mg/kg i.p. once daily
  T/C × 100 (median survival time): 212% and 136%
[1]; [3]
  in vitro HCT-15 ID50 (50 percent inhibition of number of doublings): 0.66 mg/L

## Cc1c(-c2ccc(C3CCCCC3)cc2)nc2ccc(F)cc2c1C(=O)[O-].[Na+] [Example 91, Sodium 2-(4-Cyclohexylphenyl)-6-fluoro-3-methylquinoline-4-carboxylate]
L1210 leukemia; Mus musculus, L1210, ip, 720 h, read-out: L1210 Leukemia % T/C (median survival time), 40 mg/kg i.p., marked * (not explained)
  response vs control in vivo at 40 mg/kg: 140%
L1210 leukemia; Mus musculus, L1210, ip, 720 h, read-out: L1210 Leukemia % T/C (median survival time), 100 mg/kg i.p., nonoptimal Q1DX9 instead of Q3DX9
  response vs control in vivo at 100 mg/kg: 103%
[1]
  IC50: 0.04 mg/L
Human colon tumor HCT-15; 10 mg/kg i.p. once daily
  Average Tumor Weight, Day 7 (day treatment was started): 56.8 mg
  Average Tumor Weight, Day 21: 322.8 mg
  Net Tumor Weight gain, Day 21: 266.0 mg
  Tumor Growth Inhibition, Day 21: 10.0%
Human colon tumor HCT-15; 20 mg/kg i.p. once daily
  Average Tumor Weight, Day 7 (day treatment was started): 56.2 mg
  Average Tumor Weight, Day 21: 245.1 mg
  Net Tumor Weight gain, Day 21: 188.9 mg
  Tumor Growth Inhibition, Day 21: 35.7%
Human colon tumor HCT-15; 40 mg/kg i.p. once daily
  Average Tumor Weight, Day 7 (day treatment was started): 56.8 mg
  Average Tumor Weight, Day 21: 256.9 mg
  Net Tumor Weight gain, Day 21: 200.1 mg
  Tumor Growth Inhibition, Day 21: 32.0%

## Cc1cc2c(C(=O)O)c(C)c(-c3ccc(-c4ccccc4)cc3)nc2cc1Cl [Example 148]
L1210 leukemia; Mus musculus, L1210, ip, 720 h, 37.5 mg/kg i.p., nonoptimal Q1DX9 instead of Q3DX9, read-out: L1210 Leukemia % T/C (median survival time)
  response vs control in vivo at 37.5 mg/kg: 102%
[1]; [3]
  in vitro HCT-15 ID50 (50 percent inhibition of number of doublings): > 5.00 mg/L

## Cc1c(-c2ccc(-c3ccc(O)cc3)cc2)nc2ccc(Cl)cc2c1C(=O)O [Example 192, 6-Chloro-2-(4'-hydroxy-1,1'biphenyl-4-yl)-3-methyl-4-quinolinecarboxylic acid]
L1210 leukemia; [2]
  response vs control in vivo at 200 mg/kg: 166%
[1]; [3]
  IC50: > 1 mg/L

## Cc1c(-c2ccc(SCc3ccccc3)cc2)nc2ccc(F)cc2c1C(=O)O [Example 26]
L1210 leukemia; [2]
  response vs control in vivo at 300 mg/kg: 136%
[1]; [3]
  IC50: < 0.5 mg/L

## Cc1c(-c2ccc(-c3ccccc3)cc2)nc2ccc(Br)cc2c1C(=O)O [Example 52]
L1210 leukemia; Mus musculus, L1210, ip, 720 h, 75 mg/kg i.p., read-out: L1210 Leukemia % T/C (median survival time)
  response vs control in vivo at 75 mg/kg: 189%
[1]; [3]
  IC50: < 0.5 mg/L

## Cc1c(-c2ccc(C3CCCCC3)cc2)nc2ccc(F)cc2c1C(=O)O [Example 1, 2-(4-Cyclohexylphenyl)-6-fluoro-3-methylquinoline-4-carboxylic acid]
Melanotic melanoma B16; 25 mg/kg i.p. once daily
  T/C × 100 (median survival time): 127% and 125%
Melanotic melanoma B16; 50 mg/kg i.p. once daily
  T/C × 100 (median survival time): 148% and 138%
Melanotic melanoma B16; 100 mg/kg i.p. once daily
  T/C × 100 (median survival time): 145% and 155%
Melanotic melanoma B16; 200 mg/kg i.p. once daily
  T/C × 100 (median survival time): 145% and 150%
Melanotic melanoma B16; 400 mg/kg i.p. once daily
  T/C × 100 (median survival time): 131% and 179%
Melanotic melanoma B16; criterion T/C × 100 ≥125 percent
  effectiveness against B16 melanoma in mice: effective against the B16 melanoma in mice
L1210 leukemia; [2]
  response vs control in vivo at 200 mg/kg: 189%
[1]; [3]
  in vitro HCT-15 ID50 (50 percent inhibition of number of doublings): 0.05 mg/L
Human colon tumor HCT-15; 50 mg/kg i.p. once daily
  Average Tumor Weight, Day 7 (day treatment was started): 56.3 mg
  Average Tumor Weight, Day 21: 252.9 mg
  Net Tumor Weight gain, Day 21: 196.6 mg
  Tumor Growth Inhibition, Day 21: 33.1%
Human colon tumor HCT-15; 100 mg/kg i.p. once daily
  Average Tumor Weight, Day 7 (day treatment was started): 56.6 mg
  Average Tumor Weight, Day 21: 212.9 mg
  Net Tumor Weight gain, Day 21: 156.3 mg
  Tumor Growth Inhibition, Day 21: 46.8%
Human colon tumor HCT-15; 200 mg/kg i.p. once daily
  Average Tumor Weight, Day 7 (day treatment was started): 56.8 mg
  Average Tumor Weight, Day 21: 156.3 mg
  Net Tumor Weight gain, Day 21: 99.4 mg
  Tumor Growth Inhibition, Day 21: 66.2%

## Cc1ccc(-c2ccc(-c3nc4ccc(F)cc4c(C(=O)O)c3C)cc2)cc1Cl [Example 38]
L1210 leukemia; [2]
  response vs control in vivo at 200 mg/kg: 238%
[1]; [3]
  IC50: > 1 mg/L

## CCc1ccc2nc(-c3ccc(-c4ccccc4)cc3)c(C)c(C(=O)O)c2c1 [Example 141]
L1210 leukemia; 75 mg/kg i.p.
  L1210 Leukemia % T/C (median survival time): 139%
[1]; [3]
  in vitro HCT-15 ID50 (50 percent inhibition of number of doublings): < 0.50 mg/L

## Cc1c(-c2ccc(-c3ccc(F)cc3)cc2)nc2ccc(F)cc2c1C(=O)O [Example 121]
L1210 leukemia; Mus musculus, L1210, ip, 720 h, 18 mg/kg i.p., read-out: L1210 Leukemia % T/C (median survival time)
  response vs control in vivo at 18 mg/kg: 175%
[1]; [3]
  in vitro HCT-15 ID50 (50 percent inhibition of number of doublings): < 0.50 mg/L

## Cc1ccc(-c2ccc(-c3nc4ccc(F)cc4c(C(=O)O)c3C)cc2)cc1 [Example 30]
L1210 leukemia; [2]
  response vs control in vivo at 300 mg/kg: 291%
[1]; [3]
  IC50: < 0.5 mg/L

## CCc1c(-c2ccc(C(C)CC)cc2)nc2ccc(F)cc2c1C(=O)O (stereo not shown) [Example 107]
L1210 leukemia; Mus musculus, L1210, ip, 720 h, nonoptimal Q1DX9 instead of Q3DX9, read-out: L1210 Leukemia % T/C (median survival time)
  response vs control in vivo at 25 mg/kg: 116%
[1]; [3]
  in vitro HCT-15 ID50 (50 percent inhibition of number of doublings): 0.09 mg/L

## Cc1c(-c2ccc(Cc3ccccc3)cc2)nc2ccc(Cl)cc2c1C(=O)O [Example 112]
L1210 leukemia; [2]
  response vs control in vivo at 25 mg/kg: 128%
[1]; [3]
  IC50: < 0.5 mg/L

## CCCCCCCCCCc1ccc(-c2nc3ccc(F)cc3c(C(=O)O)c2C)cc1 [Example 7]
L1210 leukemia; [2]
  response vs control in vivo at 200 mg/kg: 136%
[1]; [3]
  in vitro HCT-15 ID50 (50 percent inhibition of number of doublings): 2.30 mg/L
